# Test results published in patent US20260265055A1, “Sulfine-Based Compounds for Generating Hydrogen Persulfide” (Brown University, priority 2023, published 2026).
# Tested on: HeLa cells
# Assay: Live cell imaging of H2S2 formation with SSP4
# Type: cell-based
# Conditions: 30 min
# Procedure: HeLa cells were seeded at ~7000 cells/well in a 96-well clear flat-bottomed BioLite plate (ThermoFisher Scientific, #130188) in DMEM/F12 (1:1) (Gibco, Invitrogen, #11330-032) medium supplemented with 10% fetal bovine serum (FBS) at 37° C., 5% CO2 overnight.
# Preparation before cell treatment: Na2S and Na2S2 stocks were prepared at 10 mM in sterile 1×PBS. TTS and TT were prepared at 10 mM concentrations in DMSO. They were then diluted to 50 μM concentrations in serum-free Fluorobrite DMEM in individual Eppendorf tubes (0.5% DMSO). Na2S (final concentration=100 μM) was added to the Eppendorf tube containing Fluorobrite DMEM and TTS or TT immediately before being added to the cells. Compounds were mixed by pipetting up and down prior to cell addition.
# Cell treatment: Culturing media was aspirated from all wells, and cells were washed twice with 1×PBS. Compounds were added to cells (200 μL/well) and incubated for 30 min at 37° C., 5% CO2. While cells were incubating, SSP4 treatment was prepared by first adding 5 mM CTAB in ethanol to Fluorobrite DMEM followed by 6.125 mM SSP4 in DMSO to final concentrations of 100 μM and 5 μM, respectively, in a tube. The final volume was 5 mL (0.08% DMSO). Compounds were mixed by pipetting up and down prior to cell addition. After incubation, media was aspirated, and cells were washed twice with 1×PBS. SSP4 treatment was added to all wells (100 μL/well), and cells were incubated for 30 min at 37° C., 5% CO2 for 30 min. Media was then aspirated, and cells were washed three times with 1×PBS. Fluorobrite DMEM was added to all wells before imaging on the Keyence All-in-One Fluorescence Microscope (BZ-X810) (excitation: 470/40 nm; emission: 525/50 nm).
# As shown in FIGS. 4(A)-(D), HeLa cells were treated with TTS, TTS+H2S, or TT for 30 min before the fluorescent sensor SSP4 was applied to the cells to monitor the formation of H2S2. […] Na2S2 was used as the positive control in this study (FIG. 4D). Other control studies including TT+H2S, H2S only, and SSP4 only were also performed. […] FIG. 4H is a graph of fluorescence intensities of SSP4 staining. Data are mean values ±SEM calculated using ImageJ. (n=9, where three different images were obtained from each of three samples and quantified).
smiles,measurement,setting,value
"COC(=O)c1ccc(=S=O)sc1 [TTS, 2H-thiopyran-2-thione sulfine]",SSP4 fluorescence in HeLa cells,compound 50 μM + Na2S 100 μM,Significant green fluorescence
same,SSP4 fluorescence in HeLa cells,compound only,did not show obvious fluorescence
